Laboratory results published in US20110262508A1, “ANTIMICROBIAL COMPOSITIONS, FORMULATIONS AND USES THEREOF” (priority 2007, published 2011).
Peptide text beside a SMILES is read from it. * marks the point of attachment. Biotin = O=C1N[C@H]2[C@H](CS[C@H]2CCCCC(=O)*)N1

Legend:
A. baumannii = assay type: cell-based
Summary of the method: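 Laboratory strains and 50 clinical isolates of A. baumannii were tested by CLSI broth microdilution, with serially diluted peptide (0.1-64 μg) and about 1×10^5 C.F.U. per well, incubated aerobically overnight at 35±2° C. MIC was read visually. MBC came from subculturing clear wells, as ≥99.9% inoculum reduction.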

human RBC = experiment: Hemolysis of RBC; assay type: cell-based
Protocol: Varying amounts of peptide were incubated with the washed RBC for one hour at room temperature. Intact cells were pelleted by gentle centrifugation, and hemolysis of each sample was determined by absorption measurement at 450 nm. A positive control sample consisted of RBC lysed by the addition of 0.1% Triton, for which hemolysis was also determined by absorption measurement at 450 nm. Percentages of lysed RBC incubated with peptide were then calculated by the ratio of absorbances at 450 nm for the sample relative to the absorbance at 450 nm of the positive control sample. The MHC10 value was calculated as the minimum peptide concentration to induce 10% cell lysis.

[1] = Cytotoxicity against Jurkat cells (CellTiter Blue); assay type: cell-based, human; conditions: human
Protocol: (§1) The cytotoxicities of selected peptides against human T-lymphocytes, in particular Jurkat cells, was determined by growing 100 uL Jurkat cells in RPMI (approx. 5×10^5 cells/ml density) overnight at 37° C. under 5% CO2 atmosphere, in microtiter plate wells, in the presence and absence of peptides. Control reactions either lacked peptide (negative cytotoxicity control), or contained a buffer to completely lyse Jurkat cells (positive cytotoxicity control). The viabilities of cells were then determined by addition of 20 uL CellTiter Blue dye (Promega) to each well, and incubation of cells for a further 3 hrs at 37° C. Fluorescence values were measured for 1 sec at 540 nm/615 nm, and expressed relative to fluorescence values for negative and positive cytotoxicity control samples. Comparison with a fully lysed control allowed the calculation of a percentage killing for each peptide concentration. The MCC10 value was calculated as the minimum peptide concentration required to induce 10% cytotoxicity.

Jurkat cells = experiment: Cytotoxicity against Jurkat cells (CellTiter Blue); assay type: cell-based, human
Protocol: as §1

[2] = test system: Escherichia coli strain BL21; assay type: cell-based; conditions: summary of Table 6
Protocol: Synthetic peptides were tested for their ability to inhibit bacterial growth in liquid culture. […] 19606, Acinetobacter spp. ATCC 17903, Acinetobacter spp. ATCC 19004, Escherichia coli strain BL21, S. aureus, S. typhimurium strain AroA, P. aeruginosa or P. pneumotropica. After 5-6 hours of shaking at 37° C., growth was measured as absorbance at 595 nm. As a control, cultures were grown in the presence of 0.1% acetonitrile (i.e., the concentration present in 10 μM peptide).

| Compound | MIC (μM) for non-amidated Peptide (A. baumannii) | MHC10 (human RBC) | cytotoxicity at 12.5 μM [1] | cytotoxicity at 25 μM [1] | cytotoxicity at 50 μM [1] | MCC10 (Jurkat cells) | inhibition of growth of E. coli [2] |
| --- | --- | --- | --- | --- | --- | --- | --- |
| CC[C@H](C)[C@H](NC(=O)[C@H](Cc1c[nH]c2ccccc12)NC(=O)[C@H](CCCNC(=N)N)NC(=O)[C@H](CO)NC(=O)[C@H](CCCNC(=N)N)NC(=O)[C@H](CCCNC(=N)N)NC(=O)[C@H](CO)NC(=O)[C@H](CCCNC(=N)N)NC(=O)[C@H](CCCNC(=N)N)NC(=O)[C@H](Cc1ccc(O)cc1)NC(=O)CNC(=O)CCCC[C@@H]1SC[C@@H]2NC(=O)N[C@@H]21)C(=O)N[C@@H](CS)C(=O)N[C@@H](CO)C(=O)N[C@@H](CCSC)C(=O)N[C@@H](C)C(=O)N[C@@H](CCCNC(=N)N)C(=O)N[C@@H](CCCNC(=N)N)C(=O)N[C@@H](CO)C(=O)N[C@@H](CCCNC(=N)N)C(=O)N[C@@H](CCCNC(=N)N)C(=O)N[C@@H](CCCNC(=N)N)C(=O)N[C@@H](CCCNC(=N)N)C(=O)N1CCC[C@H]1C(=O)O [Ac389] (Biotin-GYRRSRRSRWICSMARRSRRRRP-OH) | 12.5 µM | 50 µM | 0% | 34% | 95% | 15 µM |  |
| CC[C@H](C)[C@H](NC(=O)[C@H](Cc1c[nH]cn1)NC(=O)[C@H](CO)NC(=O)[C@H](CC(C)C)NC(=O)[C@H](CS)NC(=O)[C@H](CS)NC(=O)[C@H](CCCNC(=N)N)NC(=O)[C@H](CCSC)NC(=O)[C@@H](NC(=O)[C@@H]1CCCN1C(=O)[C@H](CCC(N)=O)NC(=O)[C@H](Cc1c[nH]cn1)NC(=O)[C@H](CS)NC(=O)CCCC[C@@H]1SC[C@@H]2NC(=O)N[C@@H]21)[C@@H](C)O)C(=O)N[C@@H](CCCNC(=N)N)C(=O)N[C@@H](CCCNC(=N)N)C(=O)N[C@@H](CCCNC(=N)N)C(=O)N[C@@H](Cc1ccccc1)C(=O)N[C@@H](CCCNC(=N)N)C(=O)N[C@@H](CC(C)C)C(=O)O [Ac431] (Biotin-CHQPTMRCCLSHIRRRFRL-OH; N-terminus and C-terminus assumed) | 15 µM | 25 µM | 4% | 15% | 29% | 20 µM |  |
| CC[C@H](C)[C@H](NC(=O)[C@H](CCC(N)=O)NC(=O)[C@H](CCCNC(=N)N)NC(=O)[C@@H](NC(=O)[C@@H](NC(=O)[C@@H]1CCCN1C(=O)[C@@H]1CCCN1C(=O)[C@H](CCSC)NC(=O)[C@H](CCCNC(=N)N)NC(=O)[C@H](CC(N)=O)NC(=O)[C@@H](NC(=O)CNC(=O)[C@H](Cc1c[nH]c2ccccc12)NC(=O)CCCC[C@@H]1SC[C@@H]2NC(=O)N[C@@H]21)C(C)C)C(C)C)C(C)C)C(=O)N[C@@H](CC(C)C)C(=O)N[C@@H](CCCNC(=N)N)C(=O)N[C@@H](CO)C(=O)N[C@@H](CCC(=O)O)C(=O)N[C@@H](Cc1c[nH]c2ccccc12)C(=O)N[C@@H](CCCNC(=N)N)C(=O)N[C@@H](CC(N)=O)C(=O)N[C@@H](Cc1c[nH]c2ccccc12)C(=O)N[C@@H](CCCNC(=N)N)C(=O)N[C@@H](CCCCN)C(=O)O [Ac436] (Biotin-WGVNRMPPVVRQILRSEWRNWRK-OH) | 10 µM | 75 µM | 6% | 10% | 32% | 25 µM |  |
| CC(C)C[C@H](NC(=O)[C@H](CCC(N)=O)NC(=O)[C@H](CCCNC(=N)N)NC(=O)[C@H](Cc1ccccc1)NC(=O)[C@H](Cc1ccc(O)cc1)NC(=O)[C@H](CC(C)C)NC(=O)[C@H](Cc1c[nH]c2ccccc12)NC(=O)[C@H](Cc1ccccc1)NC(=O)[C@H](CCCNC(=N)N)NC(=O)[C@H](CCCNC(=N)N)NC(=O)[C@H](CO)NC(=O)[C@H](CC(=O)O)NC(=O)[C@H](CC(C)C)NC(=O)[C@H](Cc1c[nH]c2ccccc12)NC(=O)[C@H](Cc1ccccc1)NC(=O)[C@H](CC(=O)O)NC(=O)[C@H](CCCNC(=N)N)NC(=O)[C@H](CCCNC(=N)N)NC(=O)[C@H](C)NC(=O)[C@H](CCC(N)=O)NC(=O)[C@H](CO)NC(=O)[C@H](CCCNC(=N)N)NC(=O)CCCC[C@@H]1SC[C@@H]2NC(=O)N[C@@H]21)C(=O)N[C@@H](Cc1ccccc1)C(=O)O [Ac474] (Biotin-RSQARRDFWLDSRRFWLYFRQLF-OH) | 25 µM | 5 µM | 13% | 20% | 81% | 10 µM |  |
| CC[C@H](C)[C@H](NC(=O)[C@H](Cc1ccccc1)NC(=O)[C@H](CC(C)C)NC(=O)[C@H](CCC(N)=O)NC(=O)[C@H](CCCNC(=N)N)NC(=O)[C@H](Cc1ccccc1)NC(=O)[C@H](Cc1ccc(O)cc1)NC(=O)[C@H](CC(C)C)NC(=O)[C@H](Cc1c[nH]c2ccccc12)NC(=O)[C@H](Cc1ccccc1)NC(=O)[C@H](CCCNC(=N)N)NC(=O)[C@H](CCCNC(=N)N)NC(=O)[C@H](CO)NC(=O)[C@H](CC(=O)O)NC(=O)[C@H](CC(C)C)NC(=O)[C@H](Cc1c[nH]c2ccccc12)NC(=O)[C@H](Cc1ccccc1)NC(=O)[C@H](CC(=O)O)NC(=O)[C@H](CCCNC(=N)N)NC(=O)CCCC[C@@H]1SC[C@@H]2NC(=O)N[C@@H]21)C(=O)N[C@@H](Cc1c[nH]cn1)C(=O)N[C@@H](CC(N)=O)C(=O)N1CCC[C@H]1C(=O)N[C@@H](CCCCN)C(=O)O [Ac475] (Biotin-RDFWLDSRRFWLYFRQLFIHNPK-OH) | 15 µM | 10 µM | 4% | 4% | 60% | 35 µM |  |
| CC[C@H](C)[C@H](NC(=O)[C@H](Cc1ccccc1)NC(=O)[C@H](CC(C)C)NC(=O)[C@H](CCC(N)=O)NC(=O)[C@H](CCCNC(=N)N)NC(=O)[C@H](Cc1ccccc1)NC(=O)[C@H](Cc1ccc(O)cc1)NC(=O)[C@H](CC(C)C)NC(=O)[C@H](Cc1c[nH]c2ccccc12)NC(=O)[C@H](Cc1ccccc1)NC(=O)[C@H](CCCNC(=N)N)NC(=O)[C@H](CCCNC(=N)N)NC(=O)[C@H](CO)NC(=O)[C@H](CC(=O)O)NC(=O)CCCC[C@@H]1SC[C@@H]2NC(=O)N[C@@H]21)C(=O)N[C@@H](Cc1c[nH]cn1)C(=O)N[C@@H](CC(N)=O)C(=O)N1CCC[C@H]1C(=O)N[C@@H](CCCCN)C(=O)N[C@H](C(=O)N1CCC[C@H]1C(=O)N[C@H](C(=O)N[C@H](C(=O)N1CCC[C@H]1C(=O)O)[C@@H](C)O)[C@@H](C)CC)[C@@H](C)O [Ac476] (Biotin-DSRRFWLYFRQLFIHNPKTPITP-OH) | 5 µM | 50 µM | 12% | 18% | 44% | 10 µM |  |
| tachyplesin-1 [reference compound] |  |  |  |  |  |  | inhibited growth of E. coli significantly |
